The results in this text go back to US20100144700A1, “HETEROCYCLIC-CARBONYL-DIAZABICYCLOALKANES AS MODULATORS OF THE NEURONAL NICOTINIC ACETYLCHOLINE ALPHA 4 BETA 2, SUBTYPE RECEPTOR FOR THE TREATMENT OF CNS RELATED DISORDERS” (TARGACEPT, INC., priority 2007, published 2010).

Read-outs that look alike come from different tables or passages of the source.

One assay deals with T1, α4β2 nAChR Subtype (Rattus norvegicus, UniProt P09483+P12390).
T1 construct: The cerebral cortex was removed and placed in 20 volumes (weight:volume) of ice-cold preparative buffer; from tissue; host or cells: rat cerebral cortex membranes
The assay can be described thus: Radioligand binding ([3H]nicotine) at rat α4β2 nAChR subtype, rat cerebral cortex membranes. Here is the method:
(§1) Rats (female, Sprague-Dawley), weighing 150-250 g, were maintained on a 12 h light/dark cycle and were allowed free access to water and food supplied by PMI Nutrition International, Inc. Animals were anesthetized with 70% CO2, then decapitated. Brains were removed and placed on an ice-cold platform. The cerebral cortex was removed and placed in 20 volumes (weight:volume) of ice-cold preparative buffer (137 mM NaCl, 10.7 mM KCl, 5.8 mM KH2PO4, 8 mM Na2HPO4, 20 mM HEPES (free acid), 5 mM iodoacetamide, 1.6 mM EDTA, pH 7.4); PMSF, dissolved in methanol to a final concentration of 100 μM, was added and the suspension was homogenized by Polytron. The homogenate was centrifuged at 18,000×g for 20 min at 4° C. and the resulting pellet was re-suspended in 20 volumes of ice-cold water. After 60 min incubation on ice, a new pellet was collected by centrifugation at 18,000×g for 20 min at 4° C. The final pellet was re-suspended in 10 volumes of buffer and stored at −20° C. On the day of the assay, tissue was thawed, centrifuged at 18,000×g for 20 min, and then re-suspended in ice-cold PBS (Dulbecco's Phosphate Buffered Saline, 138 mM NaCl, 2.67 mM KCl, 1.47 mM KH2PO4, 8.1 mM Na2HPO4, 0.9 mM CaCl2, 0.5 mM MgCl2, Invitrogen/Gibco, pH 7.4) to a final concentration of approximately 4 mg protein/mL. Protein was determined by the method of Lowry et al., J. Biol. Chem. 193: 265 (1951), using bovine serum albumin as the standard.
The binding of [^3H]nicotine was measured using a modification of the methods of Romano et al., Science 210: 647 (1980) and Marks et al., Mol. Pharmacol. 30: 427 (1986). The [^3H]nicotine (Specific Activity=81.5 Ci/mmol) was obtained from NEN Research Products. The binding of [^3H]nicotine was measured using a 3 h incubation at 4° C. Incubations were conducted in 48-well micro-titre plates and contained about 400 μg of protein per well in a final incubation volume of 300 μL. The incubation buffer was PBS and the final concentration of [^3H]nicotine was 5 nM. The binding reaction was terminated by filtration of the protein containing bound ligand onto glass fiber filters (GF/B, Brandel) using a Brandel Tissue Harvester at 4° C. Filters were soaked in de-ionized water containing 0.33% polyethyleneimine to reduce non-specific binding. Each filter was washed with ice-cold buffer (3×1 mL). Non-specific binding was determined by inclusion of 10 μM non-radioactive L-nicotine (Acros Organics) in selected wells.
The inhibition of [^3H]nicotine binding by test compounds was determined by including seven different concentrations of the test compound in selected wells. Each concentration was replicated in triplicate. IC50 values were estimated as the concentration of compound that inhibited 50 percent of specific [^3H]nicotine binding. Inhibition constants (Ki values), reported in nM, were calculated from the IC50 values using the method of Cheng et al., Biochem. Pharmacol. 22: 3099 (1973).

Another assay concerns the target T2, α7 nAChR Subtype (Rattus norvegicus, UniProt Q05941).
T2 construct: The hippocampus was removed and placed in 10 volumes (weight:volume) of ice-cold preparative buffer; from tissue; host or cells: rat hippocampus membranes
In words: Radioligand binding ([3H]MLA) at α7 nAChR subtype, rat hippocampus membranes; HTS at 5 μM. To be noted: for inhibition at 5 µM: 5 μM compound, 5 nM 3H-MLA, read-out: α7 high throughput screening (HTS) binding. Here is the method: as §1, with “platform. The hippocampus was removed” for “platform. The cerebral cortex was removed”, “placed in 10 volumes (weight:volume)” for “placed in 20 volumes (weight:volume)”, “and the tissue suspension was” for “and the suspension was”, “re-suspended in 10 volumes of” for “re-suspended in 20 volumes of”, “of approximately 2 mg protein/mL.” for “of approximately 4 mg protein/mL.”
The binding of [^3H]MLA was measured using a modification of the methods of Davies et al., Neuropharmacol. 38: 679 (1999). [^3H]MLA (Specific Activity=25-35 Ci/mmol) was obtained from Tocris. The binding of [^3H]MLA was determined using a 2 h incubation at 21° C. Incubations were conducted in 48-well micro-titre plates and contained about 200 μg of protein per well in a final incubation volume of 300 μL. The incubation buffer was PBS and the final concentration of [^3H]MLA was 5 nM. The binding reaction was terminated by filtration of the protein containing bound ligand onto glass fiber filters (GF/B, Brandel) using a Brandel Tissue Harvester at room temperature. Filters were soaked in de-ionized water containing 0.33% polyethyleneimine to reduce non-specific binding. Each filter was washed with PBS (3×1 mL) at room temperature. Non-specific binding was determined by inclusion of 50 μM non-radioactive MLA in selected wells.
[…] Each concentration was replicated in triplicate. […] […] Pharmacol. 22: 3099-3108 (1973).

For the next assay, the target named is Human α4β2 (Homo sapiens, UniProt P17787+P43681). The assay can be described thus: Binding at human α4β2 subtype (Table 1).
Where [1] appears, read: [3H]nicotine 5 nM, rat cortex, read-out: Rat α4β2 Ki.

Chain of Human α4β2 (P43681 29-627 limits assumed): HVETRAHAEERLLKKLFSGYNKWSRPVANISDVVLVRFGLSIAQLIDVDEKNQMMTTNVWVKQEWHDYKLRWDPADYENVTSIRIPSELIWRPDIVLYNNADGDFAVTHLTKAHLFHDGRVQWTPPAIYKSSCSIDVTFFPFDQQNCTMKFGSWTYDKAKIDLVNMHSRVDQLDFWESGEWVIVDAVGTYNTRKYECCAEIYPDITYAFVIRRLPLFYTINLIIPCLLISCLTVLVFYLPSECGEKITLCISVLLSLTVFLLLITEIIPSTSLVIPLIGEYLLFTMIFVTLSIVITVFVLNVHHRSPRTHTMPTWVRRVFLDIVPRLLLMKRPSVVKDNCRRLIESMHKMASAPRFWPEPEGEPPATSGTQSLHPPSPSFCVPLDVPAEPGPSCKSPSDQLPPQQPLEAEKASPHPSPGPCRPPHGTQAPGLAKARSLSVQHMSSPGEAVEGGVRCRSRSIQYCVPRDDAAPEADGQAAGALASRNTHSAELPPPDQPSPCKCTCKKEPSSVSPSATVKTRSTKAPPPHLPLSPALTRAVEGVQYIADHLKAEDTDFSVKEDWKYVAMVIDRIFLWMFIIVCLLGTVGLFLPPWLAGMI
Chain of Human α4β2 (P17787 26-502): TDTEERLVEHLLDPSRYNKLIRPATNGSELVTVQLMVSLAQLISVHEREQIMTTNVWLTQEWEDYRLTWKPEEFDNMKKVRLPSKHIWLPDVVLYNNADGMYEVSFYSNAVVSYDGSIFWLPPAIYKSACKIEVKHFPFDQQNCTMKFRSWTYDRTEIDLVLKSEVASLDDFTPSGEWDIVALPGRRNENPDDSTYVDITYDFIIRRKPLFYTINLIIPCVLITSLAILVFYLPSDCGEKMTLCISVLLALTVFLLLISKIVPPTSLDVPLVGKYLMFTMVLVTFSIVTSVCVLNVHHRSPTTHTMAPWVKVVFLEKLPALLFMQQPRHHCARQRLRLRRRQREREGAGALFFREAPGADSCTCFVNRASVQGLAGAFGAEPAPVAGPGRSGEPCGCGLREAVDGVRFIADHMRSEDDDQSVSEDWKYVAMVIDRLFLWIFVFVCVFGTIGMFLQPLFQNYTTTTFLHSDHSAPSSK
T1 sequence (P09483 31-630): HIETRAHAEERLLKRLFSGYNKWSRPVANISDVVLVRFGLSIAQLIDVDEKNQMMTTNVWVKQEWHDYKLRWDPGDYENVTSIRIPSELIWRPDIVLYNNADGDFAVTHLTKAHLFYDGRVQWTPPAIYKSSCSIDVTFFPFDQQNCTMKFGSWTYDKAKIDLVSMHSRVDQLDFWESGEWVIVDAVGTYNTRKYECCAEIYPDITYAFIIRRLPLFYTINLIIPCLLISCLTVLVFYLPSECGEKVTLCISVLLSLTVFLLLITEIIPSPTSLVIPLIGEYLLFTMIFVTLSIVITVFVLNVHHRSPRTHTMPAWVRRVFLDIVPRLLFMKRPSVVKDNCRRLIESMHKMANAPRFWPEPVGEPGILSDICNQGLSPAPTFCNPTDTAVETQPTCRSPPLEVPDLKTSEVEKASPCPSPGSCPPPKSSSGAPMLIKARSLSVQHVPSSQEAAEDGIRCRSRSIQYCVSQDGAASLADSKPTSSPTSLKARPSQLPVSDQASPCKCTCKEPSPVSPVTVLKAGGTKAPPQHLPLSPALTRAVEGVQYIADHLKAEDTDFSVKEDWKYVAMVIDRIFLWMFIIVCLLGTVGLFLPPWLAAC
T1 sequence (P12390 25-500): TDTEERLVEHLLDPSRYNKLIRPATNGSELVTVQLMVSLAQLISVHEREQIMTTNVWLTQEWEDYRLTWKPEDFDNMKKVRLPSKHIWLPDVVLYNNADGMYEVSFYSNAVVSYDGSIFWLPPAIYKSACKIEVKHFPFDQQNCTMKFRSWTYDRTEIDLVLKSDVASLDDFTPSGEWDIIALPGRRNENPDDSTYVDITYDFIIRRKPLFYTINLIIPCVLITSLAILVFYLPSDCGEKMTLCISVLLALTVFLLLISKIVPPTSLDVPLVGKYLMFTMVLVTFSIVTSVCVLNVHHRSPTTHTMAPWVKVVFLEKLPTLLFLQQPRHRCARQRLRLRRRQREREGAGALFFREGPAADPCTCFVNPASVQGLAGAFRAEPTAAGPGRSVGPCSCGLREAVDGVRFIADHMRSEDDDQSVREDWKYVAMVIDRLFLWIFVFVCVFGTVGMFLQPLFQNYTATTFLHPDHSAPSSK
T2 sequence (Q05941 23-502): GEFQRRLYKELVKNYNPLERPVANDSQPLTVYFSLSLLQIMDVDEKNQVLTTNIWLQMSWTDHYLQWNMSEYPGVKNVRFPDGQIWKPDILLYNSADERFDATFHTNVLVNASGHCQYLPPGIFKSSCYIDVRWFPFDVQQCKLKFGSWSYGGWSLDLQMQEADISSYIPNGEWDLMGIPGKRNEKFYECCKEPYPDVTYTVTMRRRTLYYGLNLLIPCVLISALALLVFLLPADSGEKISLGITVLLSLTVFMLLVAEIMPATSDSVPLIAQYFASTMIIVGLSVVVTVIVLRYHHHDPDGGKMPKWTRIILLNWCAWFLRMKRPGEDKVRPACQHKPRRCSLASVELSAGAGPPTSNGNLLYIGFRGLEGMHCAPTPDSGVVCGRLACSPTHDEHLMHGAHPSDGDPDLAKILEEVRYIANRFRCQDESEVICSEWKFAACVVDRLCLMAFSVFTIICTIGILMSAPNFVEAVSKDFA

As usually defined, the Ki is a measure of affinity in units of concentration, obtained from inhibition or displacement. Turning to `O=C(c1ccco1)N1CC2CNC(C2)C1` (centres unmarked), the results for the Ki on α4β2 nAChR Subtype and on Human α4β2 (read-out: Human α4β2 Ki) were 0.0192 µM and 0.0239 µM, respectively. Further, the inhibition at 5 µM at α7 nAChR Subtype was ≤ 50%.
`O=C(c1ccncc1)N1CC2CNC(C2)C1` (centres unmarked): the inhibition at 5 µM at α7 nAChR Subtype was ≤ 50%. Besides, the Ki at Human α4β2 (read-out: Human α4β2 Ki) was 0.0297 µM.
As to `O=C(c1ccco1)N1CC2CNCC1C2` (centres unmarked), on α7 nAChR Subtype, the inhibition at 5 µM is ≤ 50%. Moreover, the inhibition constant (Ki) on Human α4β2 (read-out: Human α4β2 Ki) worked out at 0.217 µM.
As for `O=C(c1ccc(Br)o1)N1CC2CNC(C2)C1` (centres unmarked), the figures for the Ki on α4β2 nAChR Subtype and at Human α4β2 (read-out: Human α4β2 Ki) were 0.0145 µM and 0.0008 µM, respectively. Moreover, at α7 nAChR Subtype, the inhibition at 5 µM is ≤ 50%.
Turning to `Cc1ccoc1C(=O)N1CC2CNC(C2)C1` (centres unmarked), at α7 nAChR Subtype, the inhibition at 5 µM is ≤ 50%. At Human α4β2 (read-out: Human α4β2 Ki), the Ki was determined as 0.0034 µM.
On the same counts, the results for `O=C(c1cccnc1)N1CC2CNC(C2)C1` (centres unmarked) are ≤ 50% and 0.359 µM.
Turning to `O=C(c1cc(Br)no1)N1CC2CNC(C2)C1` (centres unmarked), the values for the Ki at α4β2 nAChR Subtype and at Human α4β2 (read-out: Human α4β2 Ki) were 0.0034 µM and 0.0028 µM, respectively. Also, the inhibition at 5 µM at α7 nAChR Subtype is ≤ 50%.
On the same counts, the results for `COc1cc(C(=O)N2CC3CNC(C3)C2)on1` (centres unmarked) are 0.005 µM, 0.0037 µM and ≤ 50%.
For the compound `Cc1ccoc1C(=O)N1CC2CNCC1C2` (centres unmarked), the figures for the Ki at α4β2 nAChR Subtype (setting [1]) and on Human α4β2 were 0.139 µM and 0.0952 µM, respectively. Besides, the inhibition at 5 µM on α7 nAChR Subtype was ≤ 50%.
In the case of `O=C(c1ccncc1)N1CC2CNCC1C2` (centres unmarked), the results for the Ki on α4β2 nAChR Subtype (setting [1]) and on Human α4β2 (read-out: Human α4β2 Ki) were 0.317 µM and 0.132 µM, respectively. The inhibition at 5 µM on α7 nAChR Subtype was ≤ 50%.
As for `O=C(c1cc(Br)no1)N1CC2CNCC1C2` (centres unmarked), the inhibitory constant (Ki) at α4β2 nAChR Subtype (setting [1]) is 0.172 µM; on Human α4β2, 0.0143 µM. Besides, the inhibition at 5 µM on α7 nAChR Subtype is ≤ 50%.
Take `COc1cc(C(=O)N2CC3CNCC2C3)on1` (centres unmarked): the Ki on α4β2 nAChR Subtype (setting [1]) turned out to be 0.195 µM; on Human α4β2 (read-out: Human α4β2 Ki) it was 0.306 µM. On α7 nAChR Subtype, the inhibition at 5 µM is ≤ 50%.
On to `O=C(c1ccco1)N1C[C@@H]2CN[C@@H](C2)C1`, for which the Ki at α4β2 nAChR Subtype came out at 0.0409 µM; on α7 nAChR Subtype ([3H]MLA 5 nM, rat hippocampus), 1.02 µM; at Human α4β2 (read-out: Human α4β2 Ki) it was 0.0169 µM.
With `COc1cc(C(=O)N2C[C@@H]3CN[C@@H](C3)C2)on1`, the Ki came to 0.367 µM at α4β2 nAChR Subtype (setting [1]) and 0.0954 µM at Human α4β2. Besides, the inhibition at 5 µM at α7 nAChR Subtype is ≤ 50%.
For `O=C(c1ccco1)N1C[C@H]2CN[C@H](C2)C1`, the inhibitory constant (Ki) on α4β2 nAChR Subtype was determined as 0.0108 µM; at Human α4β2 (read-out: Human α4β2 Ki) it was 0.0131 µM. Moreover, the inhibition at 5 µM on α7 nAChR Subtype is ≤ 50%.
On the same counts, the results for `O=C(c1ccc(Br)o1)N1C[C@H]2CN[C@H](C2)C1` are 0.0144 µM, 0.0068 µM and ≤ 50%.
For the compound `O=C(c1cc(Br)no1)N1C[C@H]2CN[C@H](C2)C1`, the figures for the inhibition constant (Ki) on α4β2 nAChR Subtype and on Human α4β2 (read-out: Human α4β2 Ki) were 0.0035 µM and 0.0018 µM, respectively. In addition, at α7 nAChR Subtype, the inhibition at 5 µM is ≤ 50%.
